Laboratory results taken from patent publication US5639745A, “Fused-bicyclic lactams as interleukin-1β converting enzyme inhibitors” (Sanofi, priority 1995, dated 1997).

Legend:
ICE (IL-1β protease) = biological target: T1, ICE (IL-1β protease) (Homo sapiens, UniProt P29466); assay: enzyme assay, second order rates of inactivation of ICE; type: biochemical; conditions: in vitro; read-out: kobs/[I] (IL-1β protease inhibition, second order rate of inactivation)
T1 sequence (P29466 120-297 limits assumed): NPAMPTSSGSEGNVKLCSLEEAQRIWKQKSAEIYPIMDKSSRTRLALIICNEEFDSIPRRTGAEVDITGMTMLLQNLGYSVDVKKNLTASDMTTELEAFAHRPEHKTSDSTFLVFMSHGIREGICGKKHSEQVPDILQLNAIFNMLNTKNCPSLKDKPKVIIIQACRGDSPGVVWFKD
T1 sequence (P29466 317-404 limits assumed): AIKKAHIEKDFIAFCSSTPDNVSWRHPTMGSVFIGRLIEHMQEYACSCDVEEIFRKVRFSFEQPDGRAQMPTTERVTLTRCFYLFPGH
Text: Second order rates of inactivation were obtained by using the enzyme assay described in Dolle, R. E.; et al., J. Med Chem. (1994), 37, 563. […] In the case of these reversible inhibitors, the in vitro assay was modified to obtain the reversible Ki * as follows: […]

[1] = tested on: mature IL-1β release from human monocytes; assay: human monocyte pulse chase assay, inhibition of release of mature IL-1β (called In Vivo Assay); type: cell-based; conditions: human monocytes stimulated with fixed S. aureus
Procedure: In vivo inhibition (IC50) was determined as follows:
Human monocytes were isolated from heparinized leukopheresis units obtained through Biological Specialty Corporation (Lansdale, Pa.). Monocytes were purified by Ficoll-Hupaque (Pharmacia Fine Chemicals, Piscataway, N.J.) gradient centrifugation and more than 95% pure monocyte populations obtained by centrifugal elutriation. The assay was performed on duplicate samples of freshly isolated human monocytes, cultured in suspension at 37° C. and rotated gently in conical bottom polypropylene tubes (Sardstedt Inc., Princeton, N.J.). Human monocytes at a concentration of 5×10^6 cells/mL were resuspended in 1 mL of RPMI 1640 (a common tissue buffer from M. A. Bioproducts, Walkersville, Md.) containing 1% fetal calf serum (FCS) (HyClone, Logan, Utah) and 50 μg/mL gentamycin (Gibco, Grand Island, N.Y.). The cells were treated either with a compound of the invention (i.e. test compound) or with a non-inhibitor (control compound, typically 0.03% DMSO) for 15 minutes and then activated with 0.01% fixed Staphylococcus aureus (The Enzyme Center, Malden, Mass.) for 1 hour. The cells were then centrifuged and resuspended in 1 mL of cysteine, methionine-free RPMI media containing 1% dialyzed FCS (Hyclone). The cells were pretreated with a test compound or control compound for 15 minutes after which 0.01% fixed S. aureus plus 100 μCi Tran 35-S label (ICN, Irvine, Calif.) was added and the cells incubated at 37° C. for 1 hour. After incubation, cells were centrifuged, washed once in phosphate buffer saline and resuspended in 1 mL RPMI containing 1% fetal calf serum. The cells were again pretreated with a test or control compound for 15 minutes and then 0.01% S. aureus for 2 hours. At the end of the incubation, cells were centrifuged and supernates saved for immunoprecipitation. Cells were washed once in phosphate buffer saline and then lysed in RIPA, a continuous cell media buffer containing 2 mM phenylmethylsulfonyl fluoride, 10 mM iodoacetate, 1 μg/mL pepstatin A, 1 μg/mL leupeptin and 0.5 TIU aprotinin.
For the immunoprecipitations, an equal volume of 1% dry milk in RIPA buffer plus 50 μL of resuspended protein A sepharose CL-4B (Pharmacia, Piscataway, N.Y.) was added to supernates and 1 mL of 4% dry milk containing protein A sepharose CL-4B to cell lysates and samples rotated for 30 minutes at 4° C. Beads were then centrifuged down, samples transferred to fresh tubes and incubated overnight with 40 μg rabbit anti-human IL-1β polyclonal antibody (Genzyme, Cambridge, Mass.). The IL-1β proteins were then precipitated with 70 μL protein A sepharose, resuspended in 60 μL SDS sample buffer and run on 15% SGD-PAGE gels. Autoradiography was performed on dried gels and the amount of radioactivity (counts per minute, cpm) quantitated using a Betascope 603 analyzer.
In the monocyte pulse chase assay, each test parameter was run in duplicate. Data was collected from the Beta Scope using a personal computer, then transferred to the VAX system for calculation of mean cpm and standard deviation of the mean. When test compounds were evaluated, the percent inhibition of release of mature IL-1β was calculated as follows:
100×[1-(cells treated with stimuli+test compound-unstimulated cells)/(cells treated with stimuli+control compound-unstimulated cells)]
These % inhibition values were then used to calculate IC50 value for each compound. Since the human monocyte pulse chase assay uses primary cells from different donors, each test compound was run in 2-3 separate experiments, using monocytes from 2-3 different donors.

IL-1 receptor = conditions: cited from earlier work

Compound | kinact/KI (ICE (IL-1β protease)) [M⁻¹ s⁻¹] | IC50 [1] [µM] | joint swelling and disease activity (IL-1 receptor; after three weeks of daily treatment, subcutaneous) | antiinflammatory activity (IL-1 receptor; patients with active rheumatoid arthritis, subcutaneous 20, 70 and 200 mg) | effectiveness by dosing frequency (IL-1 receptor; subcutaneous 20, 70 and 200 mg)
CN1CCN(Cc2ccc(C(=O)N[C@H]3CCC(=O)N4CCC[C@@H](C(=O)N[C@@H](CC(=O)O)C(=O)COC(=O)c5c(Cl)cccc5Cl)N4C3=O)cc2)CC1 [Example 14, [9-(N-[4-(N-Methylpiperazino)methyl]benzoylamino)octahydro-6,10-dioxo-6H-pyridazino [1,2a][1,2]diazepine-1-formoyl]-L-aspartic acid 2,6-dichlorobenzoyloxymethyl ketone] | > 10000 | < 10 | – | – | –
CN(C)Cc1ccc(C(=O)N[C@H]2CCC(=O)N3CCC[C@@H](C(=O)N[C@@H](CC(=O)O)C(=O)COc4cc(C(F)(F)F)nn4-c4ccc(Cl)cc4)N3C2=O)cc1 [Example 1] | > 10000 | < 10 | – | – | –
O=C(O)C[C@H](NC(=O)[C@@H]1CCCN2C(=O)CC[C@H](NC(=O)OCc3ccccc3)C(=O)N12)C(=O)COc1cc(C(F)(F)F)nn1-c1ccccn1 [Example 6] | > 10000 | < 10 | – | – | –
Cc1nccn1Cc1ccc(C(=O)N[C@H]2CCC(=O)N3CCC[C@@H](C(=O)N[C@@H](CC(=O)O)C(=O)COC(=O)c4c(Cl)cccc4Cl)N3C2=O)cc1 [Example 15, [9-(4-(N-(2-Methyl)imidazolylmethyl)benzoylamino)octahydro-6,10-dioxo-6H-pyridazino[1,2a][1,2]diazepine-1-formoyl]-L-aspartic acid 2,6-dichlorobenzoyloxymethyl ketone] | > 10000 | < 10 | – | – | –
Antril: The IL-1 receptor antagonist, Antril (Synergen) | – | – | decrease in joint swelling and less disease activity | significant antiinflammatory activity | most effective when taken daily
CN(C)Cc1ccc(C(=O)N[C@H]2CCC(=O)N3CCC[C@@H](C(=O)N[C@@H](CC(=O)O)C(=O)COC(=O)c4c(Cl)cccc4Cl)N3C2=O)cc1 [Example 11] | > 10000 | < 10 | – | – | –
O=C(O)CCCc1ccc(C(=O)N[C@H]2CCC(=O)N3CCC[C@@H](C(=O)N[C@@H](CC(=O)O)C(=O)COc4cc(C(F)(F)F)nn4-c4ccc(Cl)cc4)N3C2=O)cc1 [Example 20] | > 10000 | < 10 | – | – | –
O=C(O)C[C@H](NC(=O)[C@@H]1CCCN2C(=O)CC[C@H](NC(=O)c3ccc4[nH]nnc4c3)C(=O)N12)C(=O)COC(=O)c1c(Cl)cccc1Cl [Example 17, [9-(5-Bentriazoylamino)octahydro-6,10-dioxo-6H-pyridazino[1,2a][1,2]diazepine-1-formoyl]-L-aspartic acid 2,6-dichlorobenzoyloxymethyl ketone] | > 10000 | < 10 | – | – | –
O=C(O)C[C@H](NC(=O)[C@@H]1CCCN2C(=O)CC[C@H](NC(=O)OCc3ccccc3)C(=O)N12)C(=O)COc1cc(C(F)(F)F)nn1-c1ccc(Cl)cn1 [Example 24] | > 10000 | < 10 | – | – | –
CN(C)Cc1ccc(C(=O)N[C@H]2CCC(=O)N3CCC[C@@H](C(=O)N[C@@H](CC(=O)O)C(=O)COc4cc(C(F)(F)F)nn4-c4ccccn4)N3C2=O)cc1 [Example 25] | > 10000 | < 10 | – | – | –
O=C(O)C[C@H](NC(=O)[C@@H]1CCCN2C(=O)CC[C@H](NC(=O)c3ccc4[nH]cnc4c3)C(=O)N12)C(=O)COC(=O)c1c(Cl)cccc1Cl [Example 16, [9-(5-Benzimidazoylamino)octahydro-6,10-dioxo-6H-pyridazino[1,2a][1,2]diazepine-1-formoyl]-L-aspartic acid 2,6-dichlorobenzoyloxymethyl ketone] | > 10000 | < 10 | – | – | –
O=C(O)C[C@H](NC(=O)[C@@H]1CCCN2C(=O)CC[C@H](NC(=O)c3ccccc3)C(=O)N12)C(=O)COc1cc(C(F)(F)F)nn1-c1ccc(Cl)cc1 [Example 7] | > 10000 | < 10 | – | – | –
O=C(O)CSc1ccc(C(=O)N[C@H]2CCC(=O)N3CCC[C@@H](C(=O)N[C@@H](CC(=O)O)C(=O)COc4cc(C(F)(F)F)nn4-c4ccc(Cl)cc4)N3C2=O)cc1 [Example 8] | > 10000 | < 10 | – | – | –
O=C(O)C[C@H](NC(=O)[C@@H]1CCCN2C(=O)CC[C@H](NC(=O)OCc3ccccc3)C(=O)N12)C(=O)COc1cc(C(F)(F)F)nn1-c1ccc(Cl)cc1 [Example 5] | > 10000 | < 10 | – | – | –
O=C(O)C[C@H](NC(=O)[C@@H]1CCCN2C(=O)CC[C@H](NC(=O)OCc3ccccc3)C(=O)N12)C(=O)COc1cc(C(F)(F)F)nn1-c1ccccc1 [Example 4] | > 10000 | < 10 | – | – | –
O=C(O)CCSc1ccc(C(=O)N[C@H]2CCC(=O)N3CCC[C@@H](C(=O)N[C@@H](CC(=O)O)C(=O)COc4cc(C(F)(F)F)nn4-c4ccc(Cl)cc4)N3C2=O)cc1 [Example 9] | > 10000 | < 10 | – | – | –
CC(C)COC(=O)N[C@H]1CCC(=O)N2CCC[C@@H](C(=O)N[C@@H](CC(=O)O)C(=O)COc3cc(C(F)(F)F)nn3-c3ccc(Cl)cc3)N2C1=O [Example 10] | > 10000 | < 10 | – | – | –
CCOC(=O)n1nnc2cc(C(=O)N[C@H]3CCC(=O)N4CCC[C@@H](C(=O)N[C@@H](CC(=O)O)C(=O)COC(=O)c5c(Cl)cccc5Cl)N4C3=O)ccc21 [Example 18, [9-(N-Carboethoxy-5-bentriazoylamino)octahydro-6,10-dioxo-6H-pyridazino[1,2 a][1,2]diazepine-1-formoyl]-L-aspartic acid 2,6-dichlorobenzoyloxymethyl ketone] | > 10000 | < 10 | – | – | –
O=C(O)CCc1ccc(C(=O)N[C@H]2CCC(=O)N3CCC[C@@H](C(=O)N[C@@H](CC(=O)O)C(=O)COc4cc(C(F)(F)F)nn4-c4ccc(Cl)cc4)N3C2=O)cc1 [Example 12] | > 10000 | < 10 | – | – | –
O=C(O)C[C@H](NC(=O)[C@@H]1CCCN2C(=O)CC[C@H](NC(=O)c3ccc(CN4CCOCC4)cc3)C(=O)N12)C(=O)COC(=O)c1c(Cl)cccc1Cl [Example 13, [9-(4-(N-Morpholinomethyl)benzoylamino)octahydro-6,10-dioxo-6H-pyridazino[1 ,2a][1,2]diazepine-1-formoyl]-L-aspartic acid 2,6-dichlorobenzoyloxymethyl ketone] | > 10000 | < 10 | – | – | –
CCOC(=O)n1cnc2cc(C(=O)N[C@H]3CCC(=O)N4CCC[C@@H](C(=O)N[C@@H](CC(=O)O)C(=O)COC(=O)c5c(Cl)cccc5Cl)N4C3=O)ccc21 [Example 19, [9-(N-Carboethoxy-5-benzimidazoylamino)octahydro-6,10-dioxo-6H-pyridazino[1 ,2a][1,2]diazepine-1-formoyl]-L-aspartic acid 2,6-dichlorobenzoyloxymethyl ketone] | > 10000 | < 10 | – | – | –
O=C(O)C[C@H](NC(=O)[C@@H]1CCCN2CCC[C@H](NC(=O)OCc3ccccc3)C(=O)N12)C(=O)COC(=O)c1c(Cl)cccc1Cl [Example 23] | > 10000 | < 10 | – | – | –
O=C(O)C[C@H](NC(=O)[C@@H]1CCCN2C(=O)CC[C@H](NC(=O)OCc3ccccc3)C(=O)N12)C(=O)COC(=O)c1c(Cl)cccc1Cl [Example 3] | > 10000 | < 10 | – | – | –
